Test [1] deals with T1, ALK2 R206H (GST-tagged mutant ALK2) (Homo sapiens, UniProt Q04771, R206H).
T1 construct: purchased Carna Bioscience or ThermoFisher 09-148 or PV6232
T1 sequence (Q04771 21-509 R206H): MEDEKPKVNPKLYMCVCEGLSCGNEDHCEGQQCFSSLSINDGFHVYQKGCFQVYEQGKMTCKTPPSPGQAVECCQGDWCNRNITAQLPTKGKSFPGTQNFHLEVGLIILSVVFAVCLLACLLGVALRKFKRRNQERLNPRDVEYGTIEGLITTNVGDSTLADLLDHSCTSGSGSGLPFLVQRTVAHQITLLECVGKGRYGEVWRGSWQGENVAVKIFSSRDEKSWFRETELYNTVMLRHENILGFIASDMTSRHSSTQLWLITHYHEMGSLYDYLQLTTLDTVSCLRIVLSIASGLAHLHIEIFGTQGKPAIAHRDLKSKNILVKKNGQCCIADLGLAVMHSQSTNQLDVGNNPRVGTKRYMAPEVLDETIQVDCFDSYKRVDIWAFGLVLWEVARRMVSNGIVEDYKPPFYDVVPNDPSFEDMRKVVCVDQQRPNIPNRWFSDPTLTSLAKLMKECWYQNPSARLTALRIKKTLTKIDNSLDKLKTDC
Description: ALK binding assay (LANTHASCREEN TR-FRET competitive binding, displacement of Kinase Tracer 178). As to conditions: ALK2 R206H, LANTHASCREEN TR-FRET competitive binding; read-out: Binding Assay (IC50).

A further test has as its target T2, human ALK2 R206H (Homo sapiens, UniProt Q04771, R206H).
T2 construct: expressed in transfected cells; host or cells: HEK293 (ATCC CRL1573), lentivirus transduction, blasticidin selection
T2 sequence (Q04771 21-509 R206H): T1 sequence (Q04771 21-509 R206H)
Description: Cell-based ALK2-R206H cell activity assay (Smad1-Ser463/Ser465 phosphorylation by AlphaLISA in HEK293-ALK2-R206H cells). As to conditions: read-out: Cell Line (Cell Assay IC50). The method in brief:
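Stable HEK293 cells expressing C-terminally FLAG-tagged human ALK2 R206H (lentiviral, blasticidin-selected) were treated with compounds in 10-point, 3-fold dilutions from 10 μM or 1 μM top, in duplicate. Smad1 Ser463/Ser465 phosphorylation was read by AlphaLISA.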

The record followed here is patent publication US10233186B2, “Inhibitors of activin receptor-like kinase” (BLUEPRINT MEDICINES CORPORATION, priority 2016, dated 2019).

Each structure is given as a SMILES string.

Regarding `COC1(c2ccc(-c3cc4c(N5CCN(C(=O)OC6COC6)CC5)ccnn4c3)nc2)CCN([C@@H](C)COC(F)F)CC1` [Compound 899], the figures for the concentration for half-maximal inhibition (IC50) (in test [1]; at human ALK2 R206H) were less than 10 nM and less than 100 nM, respectively.

With `CC(C)N1CCN(C)[C@@](C)(c2ccc(-c3cc4c(N5CCN(C(=O)C6CC6)CC5)ccnn4c3)cc2)C1` [Compound 620], the IC50 is less than 10 nM in test [1] and less than 100 nM at human ALK2 R206H.

Take `CCN1CCC(c2ccc(-c3cc4c(N5CCN(C(=O)CC6CC6)CC5)ccnn4c3)cc2)C1` (stereo not shown) [Compound 205]: the IC50 in test [1] was 10 to 50 nM; at human ALK2 R206H, 100 to 500 nM.

As to `CC(C)N1CC[C@@H](c2ccc(-c3cc4c(N5CCN(C(=O)N6CC(C#N)C6)CC5)ccnn4c3)cc2)C1` [Compound 369], the results for the IC50 (in test [1]; on human ALK2 R206H) were less than 10 nM and less than 100 nM, respectively.

As for `CC(C)NC(C)(CO)c1ccc(-c2cc3c(N4CCN(C(=O)C5CC5)CC4)ccnn3c2)cc1` (stereo not shown) [Compound 493], the results for the IC50 (in test [1]; on human ALK2 R206H) were less than 10 nM and less than 100 nM, respectively.

Consider `CC(C)N1CC[C@@H](OC(F)F)[C@H](c2ccc(-c3cc4c(N5CCN(C(=O)C6CC6)CC5)ccnn4c3)cc2)C1` [Compound 849], for which the IC50 in test [1] was less than 10 nM; on human ALK2 R206H it was less than 100 nM.

For `CC(C)NC(=O)N1CCN(c2ccnn3cc(-c4ccc(C5(COC(F)F)CCN(C(C)C)CC5)cc4)cc23)CC1` [Compound 887], the IC50 in test [1] was less than 10 nM; at human ALK2 R206H, less than 100 nM.

In the case of `COC1(c2ccc(-c3cc4c(N5CCN(C(=O)NC(C)C)CC5)ccnn4c3)nc2)CCN(C(C)C)CC1` [Compound 688], the IC50 was less than 10 nM in test [1] and less than 100 nM on human ALK2 R206H.

In the case of `CC(C)NC(=O)N1CCN(c2ccnn3cc(-c4cnn([C@@H]5CCCNC5)c4)cc23)CC1` [Compound 469], the IC50 in test [1] was less than 10 nM; at human ALK2 R206H, less than 100 nM.

In the case of `CCNC(=O)N1CCN(c2ccnn3cc(-c4ccc(C5(O)CCN(C(C)C)CC5)cc4)cc23)CC1` [Compound 352], the figures for the IC50 (in test [1]; at human ALK2 R206H) were less than 10 nM and 100 to 500 nM, respectively.

On to `CC(C)N1CCC[C@@]1(C)c1ccc(-c2cc3c(N4CCN(C(=O)C5CC5)CC4)ccnn3c2)cc1` [Compound 509], for which the IC50 is less than 10 nM in test [1] and less than 100 nM at human ALK2 R206H.

On to `CC(C)N1CCC(c2ccc(-c3cc4c(N5CCN(C(=O)Nc6ccccc6)CC5)ccnn4c3)cc2)CC1` [Compound 838], for which the results for the IC50 (in test [1]; at human ALK2 R206H) were less than 10 nM and 100 to 500 nM, respectively.

For the molecule `CC(C)N1CCC[C@@H](c2ccc(-c3cc4c(N5CCN(C(=O)OC6(C#N)COC6)CC5)ccnn4c3)cc2)C1` [Compound 840], the IC50 was less than 10 nM in test [1] and 100 to 500 nM at human ALK2 R206H.

With `CCNC(=O)N1CCN(c2ccnn3cc(-c4ccc([C@]5(O)CCCN(C(C)C)C5)cn4)cc23)CC1` [Compound 605], the IC50 in test [1] was less than 10 nM; on human ALK2 R206H, less than 100 nM.

Take `CCN1CCC(c2ccc(-c3cc4c(N5CCN(C(=O)[C@H]6CC6(C)C)CC5)ccnn4c3)cc2)C1` (stereo partly shown) [Compound 251]: the results for the IC50 (in test [1]; on human ALK2 R206H) were less than 10 nM and less than 100 nM, respectively.

In the case of `CCOC1(c2ccc(-c3cc4c(N5CCN(C(=O)OC6COC6)CC5)ccnn4c3)nc2)CCN(C(C)C)CC1` [Compound 734], the 50% inhibitory concentration (IC50) in test [1] was less than 10 nM; on human ALK2 R206H, less than 100 nM.

Regarding `COC1(c2ccc(-c3cc4c(N5CCN(C(=O)[C@H]6C[C@@H]6F)CC5)ccnn4c3)cc2)CCN(C(C)C)CC1` [Compound 681], the IC50 in test [1] was less than 10 nM; at human ALK2 R206H, less than 100 nM.

For `CCOC1(c2ccc(-c3cc4c(N5CCN(C(=O)NC(C)C)CC5)ccnn4c3)nc2)CCN(C[C@H](C)F)CC1` [Compound 861], the IC50 is less than 10 nM in test [1] and less than 100 nM on human ALK2 R206H.

As to `CC(C)N1CCCC1c1ccc(-c2cc3c(N4CCN(C(=O)C5CC5)CC4)ccnn3c2)cc1` (stereo not shown) [Compound 209], the IC50 in test [1] was less than 10 nM; at human ALK2 R206H, less than 100 nM.

For `COC1(c2cnc(-c3cc4c(N5CCN(C(=O)NC(C)C)CC5)ccnn4c3)c(F)c2)CCN(C(C)C)CC1` [Compound 725], the IC50 in test [1] is less than 10 nM; on human ALK2 R206H, less than 100 nM.
